This is an account of results in paper PMC3303154 (2011).

The target of this assay is 20S proteasome (chymotrypsin-like activity) (Homo sapiens, UniProt P28074). Description: fluorogenic Suc-LLVY-AMC peptidase assay with purified […] proteasome. The assay is classed as biochemical.
Chain of 20S proteasome (chymotrypsin-like activity) (P28074 60-263): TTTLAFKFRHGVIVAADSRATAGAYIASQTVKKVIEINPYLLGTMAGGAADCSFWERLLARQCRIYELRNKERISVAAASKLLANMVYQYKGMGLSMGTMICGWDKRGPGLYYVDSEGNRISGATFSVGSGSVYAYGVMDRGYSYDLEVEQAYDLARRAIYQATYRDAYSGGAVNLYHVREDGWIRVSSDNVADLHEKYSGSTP

In general, IC50 refers to the concentration that inhibits the measured activity by half. Higher therefore signals lower potency. In turn, `CC(C)=CC[C@]12Oc3cc(O)c([C@H]4C=C(C)C[C@H](c5ccc(O)cc5O)[C@H]4C(=O)c4ccc(O)cc4O)c(O)c3C(=O)[C@@]1(O)Oc1cc(O)ccc12` [Sanggenon C] showed an IC50 of 4 µM.
